Assays:
[1] = tested on: SARS-CoV-2 Beta and Delta variants; assay type: cell-based
SARS-CoV-2 = tested on: SARS-CoV-2; set-up: species or system hACE2 transgenic mice; settings: mouse, in vivo
[2] = tested on: SARS-CoV-2 WT, Beta, Delta, Omicron BA.2; assay type: cell-based; settings: UDCA 10 μM, ML364 4 μM, MS102 4 μM, 48 h

Row | SMILES | inhibition of authentic SARS-CoV-2 variants [1] | therapeutic effectiveness against SARS-CoV-2 infection (SARS-CoV-2) | inhibition of infection of Calu-3 cells by authentic SARS-CoV-2 (TCID50) [2]
1 | Cc1ccc(S(=O)(=O)Nc2cc(C(F)(F)F)ccc2C(=O)Nc2nc(-c3ccccc3)cs2)cc1 [ML364] | broad inhibition | substantial therapeutic potential | 
2 | Cc1ccc(S(=O)(=O)Nc2ccc(C(F)(F)F)cc2C(=O)Nc2nc(-c3ccc(Br)cc3)cs2)cc1 [MS102] |  |  | superior activity
3 | C[C@H](CCC(=O)O)[C@H]1CC[C@H]2[C@@H]3[C@@H](O)C[C@@H]4C[C@H](O)CC[C@]4(C)[C@H]3CC[C@]12C [UDCA, ursodeoxycholic acid] |  |  | exhibited efficacy
